Experimental data published in patent US20240327433A1, “PYRIMIDOPYRAN COMPOUND” (Medshine Discovery Inc., priority 2021, published 2024).
Counter-ions that a name gives are not always drawn.

Key:
[1] = tested on: p-ERK in AGS cells; test: Assay of p-ERK inhibition in AGS cells (HTRF); type: cell-based; settings: Homo sapiens, 3 hours incubation
Procedure: • 1) AGS cells were inoculated in a transparent 96-well cell culture plate, and each well contained […] of cell suspension and 10000 cells. The cell plate was inoculated in a carbon dioxide incubator at 37° C. overnight; • 2) After completion of the incubation, the cell supernatant was discarded. 80 μL of medium containing 0.02% serum was added to each well. The cell plate was incubated in a carbon dioxide incubator at 37° C. overnight; • 3) 2 μL of the compound was weighed and added to 78 μL of the cell medium. After the mixture was mixed thoroughly, 20 μL of the solution of compound was weighed and added to the corresponding well of the cell plate. The cell plate was placed back to the carbon dioxide incubator and incubated for another 3 hours; • 4) After completion of the incubation, the cell supernatant was discarded. 50 μL of 1× cell lysate was added to each well. […] The mixture was incubated at room temperature for at least 4 hours; • 7) After completion of the incubation, HTRF was read with multi-label analyzer: excitation: 320 nm, emission: 615 nm, 665 nm; • 8). IC50 of the compound to be assayed was calculated.

[2] = tested on: p-ERK in GP2D cells; test: Assay of p-ERK inhibition in GP2D cells (HTRF); type: cell-based; settings: 1 hour incubation
Procedure: The cell plate was inoculated in a carbon dioxide incubator at 37° C. overnight; • 2) 2 μL of the compound was weighed and added to 78 μL of the cell medium. After the mixture was mixed thoroughly, 20 μL of the solution of compound was weighed and added to the corresponding well of the cell plate. The cell plate was placed back to the carbon dioxide incubator and incubated for another 1 hour; • 3) After completion of the incubation, the cell supernatant was discarded. 50 μL of 1× cell lysate was added to each well. The mixture was incubated with shaking at room temperature for 30 minutes; • 4) Phospho-ERK1/2 Eu Cryptate antibody and Phospho-ERK1/2 d2 antibody were diluted 20-fold with detection buffer; • 5) 16 μL of cell lysate supernatant was weighed and added into each well of a new 384 white microwell plate, and then 2 μL of the diluted solution of Phospho-ERK1/2 Eu Cryptate antibody and 2 μL of the diluted solution of Phospho-ERK1/2 d2 antibody dilution were added. The mixture was incubated at room temperature for at least 4 hours; • 6) After completion of the incubation, HTRF was read with multi-label analyzer: excitation: 320 nm, emission: 615 nm, 665 nm; • 7). IC50 of the compounds to be assayed was calculated.

[3] = tested on: KRAS^G12D AsPC-1; test: Anti-cell proliferation effect in tumor cell line AsPC-1 (CellTiter-Glo 3D); type: cell-based; settings: Homo sapiens, ASPC1, AsPC-1, 120 hours
Procedure: (§1) In this assay, the effect of the compounds on inhibiting cell proliferation was studied by detecting the effect of the compounds on the cell activity in vitro in the tumor cell lines AsPC-1 and GP2D.
(§2) The tumor cell lines were cultured in a 37° C., 5% CO2 incubator according to the culture conditions indicated in the culture method. Cells were passaged regularly, and cells in logarithmic growth phase were used for plating.
(§3) Cells were stained with trypan blue and viable cells were counted.
(§4) The cell concentration was adjusted to an appropriate concentration.
(§5) To each well of a ULA culture plate was added 135 μL of cell suspension. To the blank control well was added the same volume of culture medium without cells.
(§6) After plating, the ULA culture plate was immediately centrifuged at room temperature at 1000 rpm for 10 minutes. Note: After completion of the centrifugation, subsequent operations must be processed carefully to avoid unnecessary shocks.
(§7) The culture plate was incubated in a 37° C., 5% CO2, 100% relative humidity incubator overnight.
(§8) 10× compound working solution (10× working solution in DMSO) was formulated, and then to the ULA culture plate was add 15 μL of 10× compound working solution, and to the vehicle control and blank control was added 15 μL of DMSO-cell culture medium mixture, respectively. […]
(§9) The luminescent signal was detected on a 2104 EnVision plate reader. […]

[4] = tested on: KRAS^G12D GP2D; test: Anti-cell proliferation effect in tumor cell line GP2D (CellTiter-Glo 3D); type: cell-based; settings: 120 hours
Procedure: as §1, §2, §3, §4, §5, §6, §7, §8, §9

[5] = Plasma protein binding (PPB), equilibrium dialysis, human plasma; type: in vitro ADME; settings: 2 μM, unbound rate
Procedure: (§10) The protein binding rates of the compound in the plasma of CD-1 mouse, Sprague-Dawley rat, Beagle dog, cynomolgus monkey and human were determined by equilibrium dialysis method.
(§11) The plasmas of the above-mentioned five species were formulated to plasma samples with a compound concentration of 2 μM. The plasma samples were placed in a 96-well rapid equilibrium dialysis device, and dialyzed against phosphate buffered saline at 37±1° C. for 4 h. In this assay, warfarin was used as a control compound. The concentrations of analytes in plasma and dialysis buffer were determined by LC-MS/MS mothed.

[6] = Plasma protein binding (PPB), equilibrium dialysis, cynomolgus monkey plasma; type: in vitro ADME; settings: 2 μM, unbound rate
Procedure: as §10, §11

[7] = Plasma protein binding (PPB), equilibrium dialysis, Beagle dog plasma; type: in vitro ADME; settings: 2 μM, unbound rate
Procedure: as §10, §11

[8] = Plasma protein binding (PPB), equilibrium dialysis, Sprague-Dawley rat plasma; type: in vitro ADME; settings: 2 μM, unbound rate
Procedure: as §10, §11

[9] = Plasma protein binding (PPB), equilibrium dialysis, CD-1 mouse plasma; type: in vitro ADME; settings: 2 μM, unbound rate
Procedure: as §10, §11

Compound: Cc1cc(N)c(F)c(C2Cc3nc(OC[C@@]45CCCN4C[C@H](F)C5)nc(N4CC5CCC(C4)N5)c3CO2)c1C(F)(F)F (stereo partly drawn) [Compound 1 hydrochloride]
- IC50 [1]: 45 nM
- IC50 [2]: 0.8 nM
- IC50 [3]: 315 nM
- IC50 [4]: 37 nM
- Unbound PPB H [5]: 7.0%
- Unbound PPB C [6]: 6.3%
- Unbound PPB D [7]: 5.2%
- Unbound PPB R [8]: 3.0%
- Unbound PPB M [9]: 2.7%
